# Source: US10683315B2, “Prodrug of an HCV NS5B polymerase inhibitor and method of production and application thereof” (priority 2017, dated 2020)
# “And” between values parts separate entries of the source, which are not always exact repeats. Identical values can stand only once.
# Assays:
# [1] = from Sofia et al. J. Med. Chem. 2010; cited from earlier work
# [2] = tested on: Huh7 cells; assay: Cytotoxicity in Huh7 cells, ATPLite kit; assay type: cell-based, human
# Experimental: The cytotoxicity of tested compositions comprising the prodrugs was evaluated concurrently in the same cell line Huh7 using an ATPLite kit (Perkin-Elmer, Boston, USA) in accordance with the manufacturer's instruction. The cell suspension in complete culture medium (DMEM 1×, Cellgro; cat. #10-013-CV) was transferred into 96-well plates with black walls and transparent bottoms (50 μl/well) with a final density of 7500 cells per well. Eighteen hours after planting the cells, serial drug dilutions (50 μl/well) were added. The plate with cells was incubated for 4 days at 37° C. in a humidified 5% CO2 atmosphere. The cells were then twice washed with PBS (200 μl/well) and lysed by adding a lytic buffer (50 μl/well); all reagents were taken from the ATPLite kit. Following a 5-minute stirring on a shaker, a substrate was added (50 μl/well). After an additional 5-minute incubation, the plate was kept for 10 minutes in the dark, and luminescence in the wells was measured using the multifunctional reader Victor^3 V 1420 (Perkin Elmer). The values of CC50 for tested prodrugs were measured from a cytotoxicity curve plotted using the GraphPad Prizm software.
# [3] = Stability in human liver S9 fraction; assay type: in vitro ADME
# Experimental: Proteins were deposited on ice for 15 min. The samples were then centrifuged for 10 min at 3000 rpm, and the supernatant (150 μl) was sampled for analysis.
# Tolbutamide (Fluka) was used as the internal standard.
structure (smiles),measurement,setting,value
"CC(C)OC(=O)[C@H](C)N[P@](=O)(OC[C@H]1O[C@@H](n2ccc(=O)[nH]c2=O)[C@](C)(F)[C@@H]1O)Oc1ccccc1 [Sovaldi®, Sofosbuvir]",T1/2 human S9,[1],34.2 min and 32.4 min
"C[C@H](N[P@](=O)(OC[C@H]1O[C@@H](n2ccc(=O)[nH]c2=O)[C@](C)(F)[C@@H]1O)Oc1ccccc1)C(=O)OC1CCC1 [Prodrug 1.1, cyclobutyl (S)-2-{(S)-[(2R,3R,4R,5R)-5-(3,4-dihydro-2,4-dioxo-2H-pyrimidin-1-yl)-3-hydroxy-4-methyl-4-fluoro-tetrahydrofuran-2-ylmethoxy]-phenoxy-phosphorylamino}-propanoate]",CC90,"[2]; Huh7, 10% FBS",> 100 µM
same,CC50,"[2]; Huh7, ATPLite, 4 days",> 100 µM
same,"metabolic rate in human liver microsomal S9 fraction, times faster than cyclohexyl ester of formula A1",[3]; ratio of T1/2 vs A1,28 times
same,"metabolic rate in human liver microsomal S9 fraction, times faster than Sovaldi",[3]; ratio of T1/2 vs Sovaldi,11 times
